# Results as given in patent US10441663B2, “Methods for treating cancer” (Bicycle Therapeutics Limited, priority 2016, dated 2019).
# *1 amine or outer side, *2 acyl side, *3 side chain or, on linkers, in order; H or OH if unused. Where a SMILES comes first, the peptide text is derived from it. Bridges are numbered along the chain shown (N, C = ends). [ ]: non-standard residue; d: D form. The star is where a group is joined. X1 = COc1cc2cc(c1Cl)N(C)C(=O)C[C@H](OC(=O)[C@H](C)N(C)C(=O)CCSSC(C)CCC(=O)*)[C@]1(C)O[C@H]1[C@H](C)[C@@H]1C[C@@](O)(NC(=O)O1)[C@H](OC)/C=C/C=C(\C)C2; 1Nal = N[C@@H](Cc1cccc2ccccc12)C(=O)O; TBMB = c1c(C[*:1])cc(C[*:3])cc1C[*:2]; Tle = CC(C)(C)[C@H](N)C(=O)O; βAla = NCCC(=O)O; Sar = CNCC(=O)O
# Legend:
# [1] = system: HCC1806 xenograft; test: In vivo efficacy of BT1718 in HCC1806 xenograft; design: species or system Mus Musculus; key to Best response at 10 mg/kg: CR complete response; PR partial response
# Procedure: The objective of this study was to evaluate the in vivo anti-tumor efficacy of BT1718in treatment of HT1080, NCI-H292, NCI-H1975, MDA-MB-231, HCC1806, RPMI2650, HCT-15, HT-29 and SNU-16 xenograft in BALB/c nude mice.
# The HT1080, NCI-H292, NCI-H1975, MDA-MB-231, HCC1806, RPMI2650, HCT-15, HT-29 and SNU-16 tumor cells were maintained in vitro as a monolayer culture in medium supplemented with 10% heat inactivated fetal bovine serum at 37° C. in an […]. The tumor cells will be routinely subcultured twice weekly by trypsin-EDTA treatment. The cells growing in an exponential growth phase will be harvested and counted for tumor inoculation.
# Mouse was inoculated subcutaneously at the right flank with tumor cells for tumor development. The animals were randomized and treatment was started when the average tumor reaches certain volume for the efficacy study, the inoculating cell amounts and starting tumor size were shown as below in Table 9. The test article administration and the animal numbers in each group were shown in the experimental design in Table 10.
# (§1) All the procedures related to animal handling, care and the treatment in the study were performed according to the guidelines of the Association for Assessment and Accreditation of Laboratory Animal Care (AAALAC). At the time of routine monitoring, the animals were daily checked for any effects of tumor growth and treatments on normal behavior such as mobility, food and water consumption (by looking only), body weight gain/loss (body weights were measured every day), eye/hair matting and any other abnormal effect as stated in the protocol. Death and observed clinical signs were recorded on the basis of the numbers of animals within each subset.
# (§2) The major endpoint was to see if the tumor growth could be delayed or mice could be cured. Tumor size was measured three times weekly in two dimensions using a caliper, and the volume was expressed in mm^3 using the formula: V=0.5 a×b^2 where a and b are the long and short diameters of the tumor, respectively. The tumor size was then used for calculations of T/C value. The T/C value (in percent) is an indication of antitumor effectiveness; T and C are the mean volumes of the treated and control groups, respectively, on a given day.
# (§3) TGI was calculated for each group using the formula: TGI (%)=[1−(Ti−T0)/(Vi−V0)]×100; Ti is the average tumor volume of a treatment group on a given day, T0 is the average tumor volume of the treatment group on the day of treatment start, Vi is the average tumor volume of the vehicle control group on the same day with Ti, and V0 is the average tumor volume of the vehicle group on the day of treatment start.
# Summary statistics, including mean and the standard error of the mean (SEM), are provided for the tumor volume of each group at each time point.
# Statistical analysis of difference in tumor volume among the groups was conducted on the data obtained at the best therapeutic time point after the final dose.
# A one-way ANOVA was performed to compare tumor volume among groups, and when a significant F-statistics (a ratio of treatment variance to the error variance) was obtained, comparisons between groups were carried out with Games-Howell test. All data were analyzed using Prism. P<0.05 was considered to be statistically significant.
# [2] = system: LU-01-0486 PDX model; format: in vivo, Mus Musculus; settings: 3 or 10 mg/kg
# Procedure: The objective of this study was to evaluate the in vivo anti-tumor efficacy of BT1718 in the treatment of MT1-MMP low-expressing LU-01-0486 PDX model in female Balb/C nude mice
# Each mouse was inoculated subcutaneously at the right flank with LU-01-0486 of tumor fragment (30 mm^3) for tumor development. The treatments was started when the average tumor volume reaches 164 mm^3.
# as §1, with “following” for “according to”, “guidance” for “guidelines”, “twice weekly),” for “every day),”
# as §2, with “two” for “three”, “The T/C value (in percent) is an indication of antitumor effectiveness; T and C are the mean volumes of the treated and control groups, respectively, on a given day.” left out
# as §3, with “start. […]” for “start.”
# A one-way ANOVA was performed to compare tumor volume among groups, and when a significant F-statistics (a ratio of treatment variance to the error variance) was obtained, comparisons between groups were carried out with Games-Howell test. All data were analyzed using Prism. […]
smiles,measurement,setting,value
COc1cc2cc(c1Cl)N(C)C(=O)C[C@H](OC(=O)[C@H](C)N(C)C(=O)CCSSC(C)CCC(=O)NCCC(=O)N(C)CC(=O)N(C)CC(=O)N(C)CC(=O)N(C)CC(=O)N(C)CC(=O)N(C)CC(=O)N(C)CC(=O)N(C)CC(=O)N(C)CC(=O)N(C)CC(=O)N[C@@H](C)C(=O)N[C@H]1CSCc3cc4cc(c3)CSC[C@H](NC(=O)[C@@H](C)NC(=O)[C@H](Cc3cccc5ccccc35)NC(=O)[C@H](CCC(=O)O)NC(=O)[C@H](CC(N)=O)NC(=O)[C@@H](C)NC1=O)C(=O)N[C@@H](CCC(=O)O)C(=O)N[C@@H](CC(=O)O)C(=O)N[C@@H](Cc1ccccc1)C(=O)N[C@@H](Cc1ccc(O)cc1)C(=O)N[C@@H](CC(=O)O)C(=O)N[C@@H](C(C)(C)C)C(=O)N[C@H](C(N)=O)CSC4)[C@]1(C)O[C@H]1[C@H](C)[C@@H]1C[C@@](O)(NC(=O)O1)[C@H](OC)/C=C/C=C(\C)C2 (stereo partly drawn) [BT1718] ({X1-βAla}-[Sar][Sar][Sar][Sar][Sar][Sar][Sar][Sar][Sar][Sar]AC[dA]NE[1Nal][dA]CEDFYD[Tle]C-NH2; linker 12-18-25 via TBMB (inferred)),Body Weight,"[1]; 1 mpk biw, day 0",22.5 ± 0.7 g
same,Tumor Volume,"[1]; 1 mpk biw, day 0",188 ± 23 mm^3
same,Body Weight,"[1]; 1 mpk biw, day 2",22.8 ± 0.7 g
same,Tumor Volume,"[1]; 1 mpk biw, day 2",265 ± 53 mm^3
same,Body Weight,"[1]; 1 mpk biw, day 4",23.6 ± 0.6 g
same,Tumor Volume,"[1]; 1 mpk biw, day 4",428 ± 44 mm^3
same,Body Weight,"[1]; 1 mpk biw, day 7",24.2 ± 0.5 g
same,Tumor Volume,"[1]; 1 mpk biw, day 7",660 ± 85 mm^3
same,Body Weight,"[1]; 1 mpk biw, day 9",24.0 ± 0.5 g
same,Tumor Volume,"[1]; 1 mpk biw, day 9",793 ± 122 mm^3
same,Body Weight,"[1]; 1 mpk biw, day 11",24.3 ± 0.6 g
same,Tumor Volume,"[1]; 1 mpk biw, day 11",882 ± 118 mm^3
same,Body Weight,"[1]; 1 mpk biw, day 14",24.8 ± 0.4 g
same,Tumor Volume,"[1]; 1 mpk biw, day 14",1169 ± 137 mm^3
same,re-growth during dosing suspension,[1]; 2 months dosing suspension period,no re-growth
same,Body Weight,"[1]; 3 mpk biw, day 0",22.6 ± 1.0 g
same,Tumor Volume,"[1]; 3 mpk biw, day 0",190 ± 17 mm^3
same,Body Weight,"[1]; 3 mpk biw, day 2",23.2 ± 0.9 g
same,Tumor Volume,"[1]; 3 mpk biw, day 2",259 ± 34 mm^3
same,Body Weight,"[1]; 3 mpk biw, day 4",22.6 ± 1.0 g
same,Tumor Volume,"[1]; 3 mpk biw, day 4",296 ± 41 mm^3
same,Body Weight,"[1]; 3 mpk biw, day 7",22.8 ± 1.4 g
same,Tumor Volume,"[1]; 3 mpk biw, day 7",276 ± 77 mm^3
same,Body Weight,"[1]; 3 mpk biw, day 9",22.6 ± 1.6 g
same,Tumor Volume,"[1]; 3 mpk biw, day 9",323 ± 116 mm^3
same,Body Weight,"[1]; 3 mpk biw, day 11",23.2 ± 1.2 g
same,Tumor Volume,"[1]; 3 mpk biw, day 11",392 ± 126 mm^3
same,Body Weight,"[1]; 3 mpk biw, day 14",23.5 ± 1.1 g
same,Tumor Volume,"[1]; 3 mpk biw, day 14",527 ± 158 mm^3
same,Body Weight,"[1]; 10 mpk biw, day 0",23.1 ± 0.6 g
same,Tumor Volume,"[1]; 10 mpk biw, day 0",186 ± 30 mm^3
same,Body Weight,"[1]; 10 mpk biw, day 2",22.2 ± 1.1 g
same,Tumor Volume,"[1]; 10 mpk biw, day 2",221 ± 35 mm^3
same,Body Weight,"[1]; 10 mpk biw, day 4",23.2 ± 0.9 g
same,Tumor Volume,"[1]; 10 mpk biw, day 4",185 ± 20 mm^3
same,Body Weight,"[1]; 10 mpk biw, day 7",23.4 ± 0.8 g
same,Tumor Volume,"[1]; 10 mpk biw, day 7",142 ± 9 mm^3
same,Body Weight,"[1]; 10 mpk biw, day 9",22.9 ± 1.0 g
same,Tumor Volume,"[1]; 10 mpk biw, day 9",92 ± 2 mm^3
same,Body Weight,"[1]; 10 mpk biw, day 11",22.5 ± 1.2 g
same,Tumor Volume,"[1]; 10 mpk biw, day 11",84 ± 6 mm^3
same,Body Weight,"[1]; 10 mpk biw, day 14",23.8 ± 0.7 g
same,Tumor Volume,"[1]; 10 mpk biw, day 14",67 ± 11 mm^3
same,TGI,"[1]; HCC1806, 1 mpk, biw, day 14",8.6%
same,Tumor Volume,"[1]; HCC1806, 1 mpk, biw, day 14",1169 ± 137 mm^3
same,TGI,"[1]; HCC1806, 3 mpk, biw, day 14",68.6%
same,Tumor Volume,"[1]; HCC1806, 3 mpk, biw, day 14",527 ± 158 mm^3
same,TGI,"[1]; HCC1806, 10 mpk, biw, day 14",111.1%
same,Tumor Volume,"[1]; HCC1806, 10 mpk, biw, day 14",67 ± 11 mm^3
same,Best response at 10 mg/kg,"[1]; HCC-1806, 10 mg/kg",CR
same,Minimally Effective Dose IV BIW,"[1]; HCC-1806, dose leading to tumor-stasis",<10 mg/kg
same,tumor volume after regression,[1]; after 2-3 weeks 10 mg/kg biw,below 50 mm3
same,body weight effect,[2],no significant effect on body weight
same,tumor growth,[2],limited inhibition of tumor growth
